Experiment [1] addresses T1, Recombinant human 17β-HSD13 (Homo sapiens, UniProt Q7Z5P4).
T1 construct: host or cells: Sf9 insect cells
T1 sequence (Q7Z5P4 20-300): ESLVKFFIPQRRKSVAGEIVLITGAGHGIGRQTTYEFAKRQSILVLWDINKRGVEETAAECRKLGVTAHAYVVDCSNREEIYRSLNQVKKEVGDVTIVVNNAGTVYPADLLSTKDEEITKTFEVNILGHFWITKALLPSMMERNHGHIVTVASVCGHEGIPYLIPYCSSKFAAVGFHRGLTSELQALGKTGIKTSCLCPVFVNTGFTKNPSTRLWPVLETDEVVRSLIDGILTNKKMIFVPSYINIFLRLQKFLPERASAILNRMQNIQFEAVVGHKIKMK
The experiment in a line: 17β-HSD13 rapid-fire mass spectrometry assay (RF/MS assay). It counts as biochemical. Conditions: inhibition of 17β-HSD13, RF/MS assay; HSD17B13 80 nM, LTB4 10 μM, NAD+ 0.5 mM, RT 3 h. The text has this: 17(3-HSD13 rapid-fire mass spectrometry assay (RF/MS assay). Recombinant human 17β-HSD13 was expressed and purified from sf9 cells at Charles River Labs (Saffron Walden, UK). Leukotriene B4 (Catalog #71160-24-2) and 12-oxoleukotriene B4 (Catalog #20140) were purchased from Cayman Chemicals (Ann Arbor, MI). NAD+ (Catalog #N8285), BSA (Catalog #A7030), DMSO (Catalog #D2650), and Tween-20 (Catalog #11332465001) were purchased from Sigma (St. Louis, MO). Formic acid (Catalog #28905) was from ThermoFisher Scientific and 384 deep well PP microplates (Catalog #784261) were from Greiner Bio-One. In a typical IC50 assay performed in a 384w PP microplate, test compounds (0-100 μM) were incubated with HSD17B13 (80 nM), LTB4 (10 μM), and NAD^+ (0.5 mM) in 10 μL assay buffer (20 mM Tris (pH 7.5), BSA (0.005%), and Tween-20 (0.01%)) at RT for 3 h. The assays were quenched by adding 20 μL of 0.15% aqueous formic acid and the plates were frozen at −80° C. RF/MS analysis was performed at PureHoney Technologies (Billerica, MA) on a RapidFire RF300 system (Agilent Technologies, Inc.) coupled to an API 4000 triple quadrupole mass spectrometer (Sciex) equipped with Agilent RapidFire cartridge type A (C4). The mobile phase was 0.09% formic acid and 0.01% trifluoracetic acid in water (Buffer A) and 0.09% formic acid and 0.01% trifluoracetic acid in 80% aqueous acetonitrile (Buffer B). The RapidFire method conditions were the following: 250 ms aspirate, 3000 ms load/desalt, 4000 ms elute, and 500 ms re-equilibrate. RF-MS/MS was performed in negative polarity (−4500 V), the source temperature was 650° C., and gas 1 and gas 2 settings for nitrogen were set to 50. The curtain gas and collision gas were also nitrogen and were set to 20 and 12, respectively. Leukotriene B4 (335.3) and 12-oxoLeukotriene B4 (333.3) SRM transitions were optimized with Discovery Quant software and extracted ion counts for these analytes were determined.
Data Analysis. 17β-HSD13 enzyme activity was measured as percent conversion of extracted ion counts and normalized to high and low controls to determine percent residual activity at various concentrations of test compounds. Data was fitted to normalized activity (variable slope) versus concentration fit in GraphPad Prism 7 to determine IC50. All experiments were run in duplicates.
By using the above method, the inhibition of 17β-HSD13 was evaluated for the compounds of Formula (I). IC50 ranges are as follows: A is <0.1 μM; B is 0.1 μM-1.0 μM; C is 1.0 μM-10 μm; and D is >10 μM.

The target in experiment [2] is T2, human HSD17β13 (stable HEK293T cell line overexpressing human HSD17β13) (Homo sapiens, UniProt Q7Z5P4).
T2 construct: expressed in transfected cells
T2 sequence (Q7Z5P4 20-300): T1 sequence (Q7Z5P4 20-300)
As to the kind of experiment: HSD17β13 inhibitor cell-based screening assay (conversion of estradiol-d2 to estrone-d2 by RF-MS). Conditions: conversion of estradiol-d2 to estrone-d2 after 24 hours. The essentials: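 Cellular IC50 is based on 24-h conversion of estradiol-d2 (5 μM final) to estrone-d2, measured by RF-MS in acetonitrile-precipitated supernatants. Assay uses human HSD17β13-overexpressing HEK293T cells (7.5E3/well, 1% charcoal/dextran FBS MEM), with compounds dosed as a 9-point 1:3 series to 10 μM final. ATPlite luminescence on overexpressing and parent lines measured viability.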

Where a name gives a salt, the structure may show the parent alone. Where only a bound is given, the exact number is not on record here.

Regarding `COc1ccc(-c2nc3sc4cc(O)ccc4c3c(=O)n2Cc2cnco2)c(C2CC2)c1` [Example 36, 2-(2-cyclopropyl-4-methoxyphenyl)-7-hydroxy-3-(oxazol-5-ylmethyl)benzo[4,5]thieno[2,3-d]pyrimidin-4(3H)-one], the IC50 (usually the concentration needed to halve the response being measured) was greater than 10000 nM in experiment [1] and 1000 to 100000 nM in experiment [2].
On the same counts, the results for `O=c1c2c(nc(-c3cc(Cl)c(Cl)cc3C3CC3)n1Cc1cnco1)sc1c(O)c(Cl)ccc12` [Example 77] are less than 100 nM and less than 100 nM.
For `COc1ccc(-c2nc3sc4c(OCCO)cccc4c3c(=O)n2Cc2cnco2)c(C2CC2)c1` [Example 20, 2-(2-cyclopropyl-4-methoxyphenyl)-8-(2-hydroxyethoxy)-3-(oxazol-5-ylmethyl)benzo[4,5]thieno[2,3-d]pyrimidin-4(3H)-one], the half-maximal inhibitory concentration (IC50) in experiment [1] is greater than 10000 nM; in experiment [2], 1000 to 100000 nM.
On the same counts, the results for `COc1ccc(-c2nc3sc4c(N)cccc4c3c(=O)n2Cc2cnco2)c(C2CC2)c1` [Example 6, 8-amino-2-(2-cyclopropyl-4-methoxyphenyl)-3-(oxazol-5-ylmethyl)benzo[4,5]thieno[2,3-d]pyrimidin-4(3H)-one] are greater than 10000 nM and 1000 to 100000 nM.
On the same counts, the results for `COc1ccc(-c2nc3sc4c(O)c(N)ccc4c3c(=O)n2Cc2cnco2)c(C2CC2)c1` [Example 28, 7-amino-2-(2-cyclopropyl-4-methoxyphenyl)-8-hydroxy-3-(oxazol-5-ylmethyl)benzo[4,5]thieno[2,3-d]pyrimidin-4(3H)-one] are 100 to 1000 nM and 1000 to 100000 nM.
With `COc1ccc(-c2nc3sc4c(B(O)O)cccc4c3c(=O)n2Cc2cnco2)c(C2CC2)c1` [Example 11, (2-(2-cyclopropyl-4-methoxyphenyl)-3-(oxazol-5-ylmethyl)-4-oxo-3,4-dihydrobenzo[4,5]thieno[2,3-d]pyrimidin-8-yl)boronic acid], the results for the IC50 in experiment [1] and in experiment [2] were 100 to 1000 nM and 500 to 1000 nM, respectively.
On the same counts, the results for `COC(=O)c1cccc2c1sc1nc(-c3ccc(OC)cc3C3CC3)n(Cc3cnco3)c(=O)c12` [Example 1, methyl 2-(2-cyclopropyl-4-methoxyphenyl)-3-(oxazol-5-ylmethyl)-4-oxo-3,4-dihydrobenzo[4,5]thieno[2,3-d]pyrimidine-8-carboxylate] are greater than 10000 nM and 1000 to 100000 nM.
On the same counts, the results for `O=c1c2c(nc(-c3ccc(Cl)cc3C3CC3)n1Cc1cnco1)sc1c(O)c(Cl)ccc12` [Example 106] are less than 100 nM and less than 100 nM.
On the same counts, the results for `O=c1c2c(nc(-c3cc(F)c(C(F)F)cc3C3CC3)n1Cc1cnc(C(F)(F)F)nc1)sc1c(O)c(Cl)ccc12` [Example 176] are less than 100 nM and less than 100 nM.
On to `O=c1c2c(nc(-c3cc(Cl)c(F)cc3C3CC3)n1Cc1cnco1)sc1c(O)c(Cl)ccc12` [Example 138], for which the IC50 in experiment [1] and in experiment [2] was less than 100 nM throughout.
For the compound `O=c1c2c(nc(-c3cc(F)c(F)cc3C3CC3)n1Cc1cc(C(F)(F)F)no1)sc1c(O)c(Cl)ccc12` [Example 85], the IC50 in experiment [1] and in experiment [2] was less than 100 nM in each case.
As for `O=c1c2c(nc(-c3ccc(F)c(F)c3C3CC3)n1Cc1cnco1)sc1c(O)c(Cl)ccc12` [Example 132], the 50% inhibitory concentration (IC50) in experiment [1] and in experiment [2] was less than 100 nM in each case.
On to `O=c1c2c(nc(-c3cc(F)c(F)cc3C3CC3)n1Cc1cc(C(F)(F)F)on1)sc1c(O)c(Cl)ccc12` [Example 66, 7-chloro-2-(2-cyclopropyl-4,5-difluorophenyl)-8-hydroxy-3-((5-(trifluoromethyl)isoxazol-3-yl)methyl)benzo[4,5]thieno[2,3-d]pyrimidin-4(3H)-one], for which the IC50 in experiment [1] and in experiment [2] was less than 100 nM each time.
Consider `O=c1c2c(nc(-c3ncc(C(F)(F)F)cc3C3CC3)n1Cc1cnc(C(F)(F)F)nc1)sc1c(O)c(Cl)ccc12` [Example 99], for which the IC50 in experiment [1] and in experiment [2] was less than 100 nM throughout.
`COc1ccc(-c2nc3sc4c(OS(=O)(=O)O)cccc4c3c(=O)n2Cc2cnco2)c(C2CC2)c1` [Example 23, 2-(2-cyclopropyl-4-methoxyphenyl)-3-(oxazol-5-ylmethyl)-4-oxo-3,4-dihydrobenzo[4,5]thieno[2,3-d]pyrimidin-8-yl hydrogen sulfate]: the IC50 in experiment [1] is 100 to 1000 nM; in experiment [2] it was 1000 to 100000 nM.
On the same counts, the results for `C=Cc1cccc2c1sc1nc(-c3ccc(OC)cc3C3CC3)n(Cc3cnco3)c(=O)c12` [Example 14, 2-(2-cyclopropyl-4-methoxyphenyl)-3-(oxazol-5-ylmethyl)-8-vinylbenzo[4,5]thieno[2,3-d]pyrimidin-4(3H)-one] are greater than 10000 nM and 1000 to 100000 nM.
On the same counts, the results for `COc1cc(-c2nc3sc4c(O)c(Cl)ccc4c3c(=O)n2Cc2cnco2)c(C2CC2)cc1F` [Example 82, 7-chloro-2-(2-cyclopropyl-4-fluoro-5-methoxyphenyl)-8-hydroxy-3-(oxazol-5-ylmethyl)benzo[4,5]thieno[2,3-d]pyrimidin-4(3H)-one] are less than 100 nM and less than 100 nM.
In the case of `Cc1ncc(Cn2c(-c3ccc(F)cc3C3CC3)nc3sc4c(O)c(Cl)ccc4c3c2=O)o1` [Example 44, 7-chloro-2-(2-cyclopropyl-4-fluorophenyl)-8-hydroxy-3-((2-methyloxazol-5-yl)methyl)benzo[4,5]thieno[2,3-d]pyrimidin-4(3H)-one], the IC50 in experiment [1] and in experiment [2] was less than 100 nM in each case.
In the case of `COc1ccc(-c2nc3sc4c(O)cccc4c3c(=O)n2Cc2ocnc2F)c(C2CC2)c1` [Example 25, 2-(2-cyclopropyl-4-methoxyphenyl)-3-((4-fluorooxazol-5-yl)methyl)-8-hydroxybenzo[4,5]thieno[2,3-d]pyrimidin-4(3H)-one], the IC50 is less than 100 nM in experiment [1] and 100 to 500 nM in experiment [2].
On the same counts, the results for `COc1cc(F)c(-c2nc3sc4c(O)c(Cl)ccc4c3c(=O)n2Cc2cnco2)c(C2CC2)c1` [Example 137] are less than 100 nM and less than 100 nM.
With `COc1ccc(-c2nc3sc4c(O)c(Cl)ccc4c3c(=O)n2Cc2ocnc2F)c(C2CC2)c1` [Example 220], the IC50 in experiment [1] and in experiment [2] was less than 100 nM throughout.
Consider `O=c1c2c(nc(-c3cc(F)c(Cl)cc3C3CC3)n1Cc1cnco1)sc1c(O)c(Cl)ccc12` [Example 123], for which the IC50 in experiment [1] and in experiment [2] was less than 100 nM throughout.
Turning to `COc1ccc(-c2nc3sc4c(O)c(Cl)ccc4c3c(=O)n2Cc2cnco2)c(C2CCC2)c1` [Example 117], the IC50 in experiment [1] was less than 100 nM; in experiment [2], 100 to 500 nM.
On the same counts, the results for `COc1ccc(-c2nc3sc4c(C(F)F)cccc4c3c(=O)n2Cc2cnco2)c(C2CC2)c1` [Example 16, 2-(2-cyclopropyl-4-methoxyphenyl)-8-(difluoromethyl)-3-(oxazol-5-ylmethyl)benzo[4,5]thieno[2,3-d]pyrimidin-4(3H)-one] are greater than 10000 nM and 1000 to 100000 nM.
On the same counts, the results for `CS(=O)(=O)c1ccc(-c2nc3sc4c(O)c(F)ccc4c3c(=O)n2Cc2cnc(C(F)(F)F)nc2)c(C2CC2)c1` [Example 71, 2-(2-cyclopropyl-4-(methylsulfonyl)phenyl)-7-fluoro-8-hydroxy-3-((2-(trifluoromethyl)pyrimidin-5-yl)methyl)benzo[4,5]thieno[2,3-d]pyrimidin-4(3H)-one] are less than 100 nM and less than 100 nM.

For the origin of these results see patent US20250154163A1, “Pyrimidinone-Containing 17-Beta-Hydroxysteroid Dehydrogenase Type 13 Inhibitors” (ENANTA PHARMACEUTICALS, INC., priority 2023, published 2025).
